ChEMBL document CHEMBL1201862, “PubChem BioAssay data set” (2004)
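Briefly, cells in 96-well plates were exposed to five compound concentrations for 48 h, and endpoints were estimated by linear interpolation. GI50 marks 50% less growth.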 The source made the active and inactive calls. Rule as the data show it: active = GI50 up to about 1.1 µM and inactive = higher.

Key:
Experiment in all cases: growth of human tumour cells (NCI), 48 h
A549 = test system: A549
UO-31 = test system: UO-31
SK-MEL-28 = test system: SK-MEL-28
HCC 2998 = test system: HCC 2998
ACHN = test system: ACHN
IGROV-1 = test system: IGROV-1
Malme-3M = test system: Malme-3M
K562 = test system: K562
Hs-578T = test system: Hs-578T
BT-549 = test system: BT-549
NCI-H460 = test system: NCI-H460
MDA-N = test system: MDA-N
RPMI-8226 = test system: RPMI-8226
SR = test system: SR
HCT-15 = test system: HCT-15
MCF7 = test system: MCF7
TK-10 = test system: TK-10
HT-29 = test system: HT-29
UACC-257 = test system: UACC-257
T47D = test system: T47D
HOP-62 = test system: HOP-62
U-251 = test system: U-251
HCT-116 = test system: HCT-116
OVCAR-8 = test system: OVCAR-8
SK-MEL-5 = test system: SK-MEL-5
786-0 = test system: 786-0
RXF 393 = test system: RXF 393
MDA-MB-231 = test system: MDA-MB-231
HL-60 = test system: HL-60
M14 = test system: M14
SNB-75 = test system: SNB-75
MOLT-4 = test system: MOLT-4
SNB-19 = test system: SNB-19
SW-620 = test system: SW-620
UACC-62 = test system: UACC-62
KM12 = test system: KM12
NCI-H23 = test system: NCI-H23
HOP-92 = test system: HOP-92
OVCAR-5 = test system: OVCAR-5
PC-3 = test system: PC-3
SK-MEL-2 = test system: SK-MEL-2
COLO 205 = test system: COLO 205
NCI-H226 = test system: NCI-H226
EKVX = test system: EKVX
OVCAR-3 = test system: OVCAR-3
SN12C = test system: SN12C
SF-295 = test system: SF-295
A498 = test system: A498
LOX IMVI = test system: LOX IMVI
SF-268 = test system: SF-268
NCI/ADR-RES = test system: NCI/ADR-RES
DU-145 = test system: DU-145
SK-OV-3 = test system: SK-OV-3
SF-539 = test system: SF-539
OVCAR-4 = test system: OVCAR-4

Question: Which results are given for O=C(CC(=O)n1nc(-c2ccccc2)c(/N=N/c2ccccc2C(=O)O)c1-c1ccccc1)Nc1ccc(Cl)cc1?
Answer: GI50 (A549): 34.1 µM (inactive); GI50 (UO-31): 15.5 µM (inactive); GI50 (SK-MEL-28): 52.8 µM (inactive); GI50 (HCC 2998): 34.4 µM (inactive); GI50 (ACHN): 33.5 µM (inactive); GI50 (IGROV-1): 1.5 µM (inactive); GI50 (Malme-3M): 75 µM (inactive); GI50 (K562): 25.6 µM (inactive); GI50 (Hs-578T): 35.6 µM (inactive); GI50 (BT-549): 24.7 µM (inactive); GI50 (NCI-H460): 19.2 µM (inactive); GI50 (MDA-N): 36.1 µM (inactive); GI50 (RPMI-8226): 20.4 µM (inactive); GI50 (SR): 11.6 µM (inactive); GI50 (HCT-15): 26.9 µM; GI50 (MCF7): 30.3 µM (inactive); GI50 (TK-10): > 100 µM (inactive); GI50 (HT-29): 34.2 µM (inactive); GI50 (UACC-257): 32 µM (inactive); GI50 (T47D): 9.77 µM (inactive); GI50 (HOP-62): 19.6 µM (inactive); GI50 (U-251): 19.2 µM (inactive); GI50 (HCT-116): 17.9 µM (inactive); GI50 (OVCAR-8): 36.8 µM (inactive); GI50 (SK-MEL-5): 42 µM (inactive); GI50 (786-0): 36.1 µM (inactive); GI50 (RXF 393): 7.66 µM (inactive); GI50 (MDA-MB-231): 33.3 µM (inactive); GI50 (HL-60): 10.2 µM (inactive); GI50 (M14): 55.8 µM (inactive); GI50 (SNB-75): 27.9 µM (inactive); GI50 (MOLT-4): 5.57 µM (inactive); GI50 (SNB-19): 21.7 µM (inactive); GI50 (SW-620): 63.8 µM (inactive); GI50 (UACC-62): 77.1 µM (inactive); GI50 (KM12): > 100 µM (inactive); GI50 (NCI-H23): 20.5 µM (inactive); GI50 (HOP-92): 5.9 µM (inactive); GI50 (OVCAR-5): 43 µM (inactive); GI50 (PC-3): 27.5 µM (inactive); GI50 (SK-MEL-2): 29.5 µM (inactive); GI50 (COLO 205): 50.7 µM (inactive); GI50 (NCI-H226): 30.6 µM (inactive); GI50 (EKVX): 30.7 µM (inactive)

Question: C=C1[C@@H]2CCC3[C@]4(C)C(CC[C@@]5(C)C(=O)O[C@H](O)[C@@H]45)[C@H](O)[C@]3(C2)[C@H]1OC1OC(CO)C(O)C(O)C1O (stereo partly specified) was tested. Which GI50 (OVCAR-3) did it give?
Answer: > 50 µM (inactive)

Question: And the GI50 (A549)?
Answer: > 50 µM (inactive)

Question: And the GI50 (UO-31)?
Answer: > 50 µM (inactive)

Question: What about the GI50 (SK-MEL-28) of the same compound?
Answer: > 50 µM (inactive)

Question: What about the GI50 (ACHN) of the same compound?
Answer: > 50 µM (inactive)

Question: And the GI50 (IGROV-1)?
Answer: > 50 µM (inactive)

Question: What about the GI50 (Malme-3M) of the same compound?
Answer: > 50 µM (inactive)

Question: And the GI50 (K562)?
Answer: 14.1 µM (inactive)

Question: And the GI50 (Hs-578T)?
Answer: > 50 µM (inactive)

Question: And the GI50 (BT-549)?
Answer: > 50 µM (inactive)

Question: And the GI50 (SN12C)?
Answer: > 50 µM (inactive)

Question: And the GI50 (NCI-H460)?
Answer: > 50 µM (inactive)

Question: What about the GI50 (MDA-N) of the same compound?
Answer: > 50 µM (inactive)

Question: And the GI50 (RPMI-8226)?
Answer: 8.81 µM (inactive)

Question: And the GI50 (HCT-15)?
Answer: > 50 µM

Question: What about the GI50 (MCF7) of the same compound?
Answer: > 50 µM (inactive)

Question: And the GI50 (TK-10)?
Answer: > 50 µM (inactive)

Question: And the GI50 (HT-29)?
Answer: > 50 µM (inactive)

Question: What about the GI50 (UACC-257) of the same compound?
Answer: > 50 µM (inactive)

Question: And the GI50 (T47D)?
Answer: > 50 µM (inactive)

Question: And the GI50 (SF-295)?
Answer: > 50 µM (inactive)

Question: And the GI50 (HOP-62)?
Answer: > 50 µM (inactive)

Question: What about the GI50 (U-251) of the same compound?
Answer: > 50 µM (inactive)

Question: And the GI50 (HCT-116)?
Answer: > 50 µM (inactive)

Question: And the GI50 (OVCAR-8)?
Answer: > 50 µM (inactive)

Question: What about the GI50 (A498) of the same compound?
Answer: > 50 µM (inactive)

Question: And the GI50 (LOX IMVI)?
Answer: > 50 µM (inactive)

Question: What about the GI50 (SK-MEL-5) of the same compound?
Answer: > 50 µM (inactive)

Question: What about the GI50 (786-0) of the same compound?
Answer: > 50 µM (inactive)

Question: And the GI50 (RXF 393)?
Answer: > 50 µM (inactive)

Question: And the GI50 (MDA-MB-231)?
Answer: > 50 µM (inactive)

Question: And the GI50 (SF-268)?
Answer: > 50 µM (inactive)

Question: And the GI50 (HL-60)?
Answer: > 50 µM (inactive)

Question: And the GI50 (M14)?
Answer: > 50 µM (inactive)

Question: And the GI50 (SNB-75)?
Answer: > 50 µM (inactive)

Question: And the GI50 (MOLT-4)?
Answer: 17.4 µM (inactive)

Question: And the GI50 (SNB-19)?
Answer: > 50 µM (inactive)

Question: What about the GI50 (SW-620) of the same compound?
Answer: > 50 µM (inactive)

Question: What about the GI50 (NCI/ADR-RES) of the same compound?
Answer: > 50 µM (inactive)

Question: What about the GI50 (UACC-62) of the same compound?
Answer: > 50 µM (inactive)

Question: And the GI50 (DU-145)?
Answer: > 50 µM (inactive)

Question: And the GI50 (SK-OV-3)?
Answer: > 50 µM (inactive)

Question: And the GI50 (KM12)?
Answer: > 50 µM (inactive)

Question: And the GI50 (SF-539)?
Answer: > 50 µM (inactive)

Question: What about the GI50 (NCI-H23) of the same compound?
Answer: > 50 µM (inactive)

Question: And the GI50 (OVCAR-5)?
Answer: > 50 µM (inactive)

Question: What about the GI50 (PC-3) of the same compound?
Answer: > 50 µM (inactive)

Question: And the GI50 (OVCAR-4)?
Answer: > 50 µM (inactive)

Question: And the GI50 (SK-MEL-2)?
Answer: > 50 µM (inactive)

Question: And the GI50 (COLO 205)?
Answer: > 50 µM (inactive)

Question: What about the GI50 (NCI-H226) of the same compound?
Answer: > 50 µM (inactive)

Question: And the GI50 (EKVX)?
Answer: > 50 µM (inactive)

Question: With CCOC(=O)CCC(NC(=O)C(CCC(=O)OCC)NC(=O)C(Cc1ccc([N+](=O)[O-])cc1)NC(C)=O)C(=O)NNC(=O)OC(C)(C)C (stereo unspecified) as the compound, how does the GI50 (A549) read?
Answer: > 100 µM (inactive)

Question: What about the GI50 (UO-31) of the same compound?
Answer: > 100 µM (inactive)

Question: And the GI50 (SK-MEL-28)?
Answer: > 100 µM (inactive)

Question: And the GI50 (HCC 2998)?
Answer: > 100 µM (inactive)

Question: What about the GI50 (ACHN) of the same compound?
Answer: > 100 µM (inactive)

Question: And the GI50 (IGROV-1)?
Answer: > 100 µM (inactive)

Question: And the GI50 (Malme-3M)?
Answer: > 100 µM (inactive)

Question: And the GI50 (K562)?
Answer: > 100 µM (inactive)

Question: What about the GI50 (Hs-578T) of the same compound?
Answer: > 100 µM (inactive)

Question: And the GI50 (BT-549)?
Answer: > 100 µM (inactive)

Question: And the GI50 (SN12C)?
Answer: > 100 µM (inactive)

Question: And the GI50 (NCI-H460)?
Answer: > 100 µM (inactive)

Question: And the GI50 (MDA-N)?
Answer: > 100 µM (inactive)

Question: And the GI50 (RPMI-8226)?
Answer: > 100 µM (inactive)

Question: And the GI50 (HCT-15)?
Answer: > 100 µM

Question: And the GI50 (MCF7)?
Answer: > 100 µM (inactive)

Question: What about the GI50 (TK-10) of the same compound?
Answer: > 100 µM (inactive)

Question: What about the GI50 (HT-29) of the same compound?
Answer: > 100 µM (inactive)

Question: What about the GI50 (UACC-257) of the same compound?
Answer: > 100 µM (inactive)

Question: What about the GI50 (T47D) of the same compound?
Answer: 37.3 µM (inactive)

Question: And the GI50 (HOP-62)?
Answer: > 100 µM (inactive)

Question: And the GI50 (U-251)?
Answer: > 100 µM (inactive)

Question: And the GI50 (HCT-116)?
Answer: > 100 µM (inactive)

Question: What about the GI50 (OVCAR-8) of the same compound?
Answer: > 100 µM (inactive)

Question: What about the GI50 (A498) of the same compound?
Answer: > 100 µM (inactive)

Question: What about the GI50 (SK-MEL-5) of the same compound?
Answer: > 100 µM (inactive)

Question: And the GI50 (786-0)?
Answer: > 100 µM (inactive)

Question: And the GI50 (RXF 393)?
Answer: 14 µM (inactive)

Question: And the GI50 (MDA-MB-231)?
Answer: > 100 µM (inactive)

Question: And the GI50 (HL-60)?
Answer: > 100 µM (inactive)

Question: What about the GI50 (M14) of the same compound?
Answer: > 100 µM (inactive)

Question: And the GI50 (SNB-75)?
Answer: > 100 µM (inactive)

Question: And the GI50 (MOLT-4)?
Answer: > 100 µM (inactive)

Question: What about the GI50 (SNB-19) of the same compound?
Answer: > 100 µM (inactive)

Question: What about the GI50 (SW-620) of the same compound?
Answer: > 100 µM (inactive)

Question: And the GI50 (UACC-62)?
Answer: > 100 µM (inactive)

Question: What about the GI50 (KM12) of the same compound?
Answer: > 100 µM (inactive)

Question: And the GI50 (NCI-H23)?
Answer: 65.6 µM (inactive)

Question: And the GI50 (HOP-92)?
Answer: > 100 µM (inactive)

Question: And the GI50 (OVCAR-5)?
Answer: > 100 µM (inactive)

Question: And the GI50 (PC-3)?
Answer: > 100 µM (inactive)

Question: What about the GI50 (SK-MEL-2) of the same compound?
Answer: > 100 µM (inactive)

Question: And the GI50 (COLO 205)?
Answer: > 100 µM (inactive)

Question: What about the GI50 (NCI-H226) of the same compound?
Answer: > 100 µM (inactive)

Question: And the GI50 (EKVX)?
Answer: > 100 µM (inactive)
